How the values were obtained:
Test in all cases: relative viability (nuclei count vs DMSO), 5 days (fraction); higher = more cells survive
[1] = compound: Cc1ccc(C(=O)Nc2cccc(C(F)(F)F)c2)cc1Nc1cncc(C(N)=O)c1 [ALW-II-49-7] + CS(=O)(=O)CCNCc1ccc(-c2ccc3ncnc(Nc4ccc(OCc5cccc(F)c5)c(Cl)c4)c3c2)o1 [Lapatinib] (partner 2 µM)
Outline: (§1)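 Five library-drug doses in √10 steps were combined with a fixed anchor-drug dose, or a single drug was given alone, by pin tool to lung cancer cell lines in 1536-well plates the day after seeding. Nuclei were stained and counted after 5 days. Relative viability is the nuclei count in treated wells over that in vehicle wells, taken as the median of duplicate plates.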

[2] = compound: Cc1ccc(C(=O)Nc2cccc(C(F)(F)F)c2)cc1Nc1cncc(C(N)=O)c1 [ALW-II-49-7] + O=C(CCCCCCC(=O)Nc1ccccc1)NO [Vorinostat] (partner 1 µM)
Outline: as §1

[3] = compound: C1CC1C(=O)NC2=NNC3=C2C=CC(=C3)C4=CC(=CC=C4)C(=O)NC5CC5 [XMD13-2] + COc1cccc2cc(-c3nc([C@H]4CC[C@H](C(=O)O)CC4)n4ncnc(N)c34)[nH]c12 [OSI-027] (partner 0.5 µM)
Outline: as §1

[4] = compound: Cc1nc(Nc2ncc(C(=O)Nc3c(C)cccc3Cl)s2)cc(N2CCN(CCO)CC2)n1 [Dasatinib] + O=C(c1cc(Cc2n[nH]c(=O)c3ccccc23)ccc1F)N1CCN(C(=O)C2CC2)CC1 [Olaparib] (partner 8 µM)
Outline: as §1

UMC-11
relative viability ([1]; first compound 0.08 µM): 0.943 | relative viability ([1]; first compound 0.253 µM): 1.08 | relative viability ([1]; first compound 0.8 µM): 0.998 | relative viability ([1]; first compound 2.53 µM): 1.04 | relative viability ([1]; first compound 8 µM): 0.806 | relative viability ([2]; first compound 0.08 µM): 0.36 | relative viability ([2]; first compound 0.253 µM): 0.381 | relative viability ([2]; first compound 0.8 µM): 0.324 | relative viability ([2]; first compound 2.53 µM): 0.357 | relative viability ([2]; first compound 8 µM): 0.305 | relative viability ([3]; first compound 0.05 µM): 0.438 | relative viability ([3]; first compound 0.1581 µM): 0.404 | relative viability ([3]; first compound 0.5 µM): 0.474 | relative viability ([3]; first compound 1.581 µM): 0.453 | relative viability ([3]; first compound 5 µM): 0.351 | relative viability ([4]; first compound 0.005 µM): 0.542 | relative viability ([4]; first compound 0.01581 µM): 0.377 | relative viability ([4]; first compound 0.05 µM): 0.427 | relative viability ([4]; first compound 0.1581 µM): 0.272 | relative viability ([4]; first compound 0.5 µM): 0.247

Reference: the supplement of paper PMC10307832
